Source: patent US9714252B2, “Cyclic sulfonamides as sodium channel blockers” (priority 2012, dated 2017)
Like-named read-outs stand apart in the source and are kept apart here.

Biological target: human Nav1.7 (Homo sapiens (Human), UniProt Q15858)
Experiment: FLIPR sodium dye assay (CoroNa Green) with KCl and test article pre-incubation, recombinant Nav1.7/HEK293 cells
Format: cell-based
[1] = recombinant human Nav1.7 in HEK293, veratridine + scorpion venom stimulation

Sequence of human Nav1.7 (Q15858 with tags, fused parts or gaps limits assumed): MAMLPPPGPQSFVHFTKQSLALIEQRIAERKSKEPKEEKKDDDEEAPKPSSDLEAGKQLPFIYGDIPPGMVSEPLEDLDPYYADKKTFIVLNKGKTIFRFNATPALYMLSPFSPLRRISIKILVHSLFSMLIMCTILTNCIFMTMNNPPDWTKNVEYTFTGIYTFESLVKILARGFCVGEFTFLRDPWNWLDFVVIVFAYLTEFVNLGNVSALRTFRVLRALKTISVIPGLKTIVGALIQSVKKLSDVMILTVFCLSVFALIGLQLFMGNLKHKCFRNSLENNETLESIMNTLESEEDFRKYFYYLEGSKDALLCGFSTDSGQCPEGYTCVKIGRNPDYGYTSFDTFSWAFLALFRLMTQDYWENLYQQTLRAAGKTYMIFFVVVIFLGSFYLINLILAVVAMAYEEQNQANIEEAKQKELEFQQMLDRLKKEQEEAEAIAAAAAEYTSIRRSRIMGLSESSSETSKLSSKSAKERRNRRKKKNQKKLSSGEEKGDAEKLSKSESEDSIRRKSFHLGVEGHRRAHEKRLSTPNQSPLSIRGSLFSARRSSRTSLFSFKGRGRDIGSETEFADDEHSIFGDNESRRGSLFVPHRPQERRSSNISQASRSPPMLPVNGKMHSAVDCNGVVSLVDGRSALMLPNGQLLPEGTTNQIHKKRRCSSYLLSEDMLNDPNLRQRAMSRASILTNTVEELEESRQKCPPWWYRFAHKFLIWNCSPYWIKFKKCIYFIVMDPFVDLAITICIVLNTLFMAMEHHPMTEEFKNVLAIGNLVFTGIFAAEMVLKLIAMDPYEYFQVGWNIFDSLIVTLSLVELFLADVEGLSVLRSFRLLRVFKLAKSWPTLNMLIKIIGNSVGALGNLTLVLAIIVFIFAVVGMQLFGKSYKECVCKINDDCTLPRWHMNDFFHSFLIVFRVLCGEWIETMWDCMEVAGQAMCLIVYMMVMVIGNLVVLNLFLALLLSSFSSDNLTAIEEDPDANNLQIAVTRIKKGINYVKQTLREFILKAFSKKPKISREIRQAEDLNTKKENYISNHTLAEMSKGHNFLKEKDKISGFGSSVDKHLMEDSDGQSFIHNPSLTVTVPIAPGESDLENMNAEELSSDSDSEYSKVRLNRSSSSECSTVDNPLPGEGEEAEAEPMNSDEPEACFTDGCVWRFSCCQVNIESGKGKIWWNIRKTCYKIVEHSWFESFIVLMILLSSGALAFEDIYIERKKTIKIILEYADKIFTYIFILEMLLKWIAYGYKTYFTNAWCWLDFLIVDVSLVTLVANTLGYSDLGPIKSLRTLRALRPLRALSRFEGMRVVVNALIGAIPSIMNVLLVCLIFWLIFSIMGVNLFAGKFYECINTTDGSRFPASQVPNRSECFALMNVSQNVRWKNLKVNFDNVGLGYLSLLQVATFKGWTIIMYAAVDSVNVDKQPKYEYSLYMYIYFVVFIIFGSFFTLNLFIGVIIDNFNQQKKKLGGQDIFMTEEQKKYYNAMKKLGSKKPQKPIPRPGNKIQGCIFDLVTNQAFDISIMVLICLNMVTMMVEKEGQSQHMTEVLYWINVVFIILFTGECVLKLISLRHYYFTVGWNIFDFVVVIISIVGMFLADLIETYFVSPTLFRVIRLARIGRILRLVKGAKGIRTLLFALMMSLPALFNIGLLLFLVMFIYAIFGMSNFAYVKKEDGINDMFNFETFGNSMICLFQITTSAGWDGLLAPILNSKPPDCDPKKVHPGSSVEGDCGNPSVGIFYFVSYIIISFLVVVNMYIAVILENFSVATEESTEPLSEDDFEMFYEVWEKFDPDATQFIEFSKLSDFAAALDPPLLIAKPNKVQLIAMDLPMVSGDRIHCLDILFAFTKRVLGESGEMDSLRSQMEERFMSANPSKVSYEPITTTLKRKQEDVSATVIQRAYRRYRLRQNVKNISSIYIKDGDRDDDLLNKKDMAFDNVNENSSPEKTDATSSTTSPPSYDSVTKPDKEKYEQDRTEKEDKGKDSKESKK

O=S1(=O)c2ccc(Oc3ccc(C(F)(F)F)cc3-c3ccnnc3)cc2CN1c1nccs1 [Compound 1, 5-(2-(pyridazin-4-yl)-4-(trifluoromethyl)phenoxy)-2-(thiazol-2-yl)-2,3-dihydrobenzo[d]isothiazole 1,1-dioxide]
IC50 [1]: 1.74 µM

O=S1(=O)c2ccc(Oc3ccccc3-c3ccccc3)cc2CN1c1nccs1 [Compound 2, 5-([1,1′-biphenyl]-2-yloxy)-2-(thiazol-2-yl)-2,3-dihydrobenzo[d]isothiazole 1,1-dioxide]
IC50 [1]: > 20 µM

Cn1nccc1-c1cc(Cl)ccc1Oc1ccc2c(c1)CN(c1nccs1)S2(=O)=O [Compound 3, 5-(4-chloro-2-(1-methyl-1H-pyrazol-5-yl)phenoxy)-2-(thiazol-2-yl)-2,3-dihydrobenzo[d]isothiazole 1,1-dioxide]
IC50 [1]: 9.1 µM

O=S1(=O)c2ccc(N3CCC4(CC3)OCc3ccccc34)cc2CN1c1nccs1 [Compound 4, 5-(3H-spiro[isobenzofuran-1,4′-piperidin]-1′-yl)-2-(thiazol-2-yl)-2,3-dihydrobenzo[d]isothiazole 1,1-dioxide]
IC50 [1]: 1.38 µM

O=S1(=O)c2ccc(N3CCC4(CC3)OCc3ccccc34)cc2CCN1c1nccs1 [Compound 5, 6-(3H-spiro[isobenzofuran-1,4′-piperidin]-1′-yl)-2-(thiazol-2-yl)-3,4-dihydro-2H-benzo[e][1,2]thiazine 1,1-dioxide]
IC50: 0.766 µM

O=S1(=O)c2ccc(Oc3ccccc3-c3ccccc3)cc2CCN1c1nccs1 [Compound 6, 6-([1,1′-biphenyl]-2-yloxy)-2-(thiazol-2-yl)-3,4-dihydro-2H-benzo[e][1,2]thiazine 1,1-dioxide]
IC50: 1.7 µM

O=S1(=O)c2ccc(-c3ccc(Oc4ccc(C(F)(F)F)cc4)cc3)cc2CCN1c1nccs1 [Compound 7, 2-(thiazol-2-yl)-6-(4-(4-(trifluoromethyl)phenoxy)phenyl)-3,4-dihydro-2H-benzo[e][1,2]thiazine 1,1-dioxide]
IC50 [1]: 7.09 µM
